In ChEMBL document CHEMBL3872264, “Discovery of biphenyl imidazole derivatives as potent antifungal agents: Design, synthesis, and structure-activity relationship studies” (Bioorg Med Chem, 2017):
Converted amounts (≈) assume the structure as drawn.

Legend:
Candida albicans [1] = test: Anti-fungal activity against Candida albicans CPCC 400523 by broth microdilution method; format: functional
Candida tropicalis = test: Anti-fungal activity against Candida tropicalis CGMCC 2.3739 by broth microdilution method; format: functional
Cryptococcus neoformans = test: Anti-fungal activity against Cryptococcus neoformans CGMCC 2.3161 by broth microdilution method; format: functional
Candida albicans [2] = test: Anti-fungal activity against Candida albicans SC5314 by broth microdilution method; format: functional
Aspergillus fumigatus = test: Anti-fungal activity against Aspergillus fumigatus CGMCC 3.7795 by broth microdilution method; format: functional
Candida albicans [3] = test: Anti-fungal activity against fluconazole-resistant Candida albicans 103 by broth microdilution method; format: functional
Candida albicans [4] = test: Anti-fungal activity against fluconazole-resistant Candida albicans 100 by broth microdilution method; format: functional
[5] = target: T1, Lanosterol 14-alpha demethylase (Candida albicans (strain SC5314 / ATCC MYA-2876) (Yeast), UniProt P10613); test: Inhibition of Candida albicans SC5314 CYP51 assessed as eburicol composition of total sterols at 8 ug/ml by GC-MS method relative to control; parameters: scale not given: the % may be the effect or the level left; details: at 8 µg/mL
T1 sequence (P10613 whole entry): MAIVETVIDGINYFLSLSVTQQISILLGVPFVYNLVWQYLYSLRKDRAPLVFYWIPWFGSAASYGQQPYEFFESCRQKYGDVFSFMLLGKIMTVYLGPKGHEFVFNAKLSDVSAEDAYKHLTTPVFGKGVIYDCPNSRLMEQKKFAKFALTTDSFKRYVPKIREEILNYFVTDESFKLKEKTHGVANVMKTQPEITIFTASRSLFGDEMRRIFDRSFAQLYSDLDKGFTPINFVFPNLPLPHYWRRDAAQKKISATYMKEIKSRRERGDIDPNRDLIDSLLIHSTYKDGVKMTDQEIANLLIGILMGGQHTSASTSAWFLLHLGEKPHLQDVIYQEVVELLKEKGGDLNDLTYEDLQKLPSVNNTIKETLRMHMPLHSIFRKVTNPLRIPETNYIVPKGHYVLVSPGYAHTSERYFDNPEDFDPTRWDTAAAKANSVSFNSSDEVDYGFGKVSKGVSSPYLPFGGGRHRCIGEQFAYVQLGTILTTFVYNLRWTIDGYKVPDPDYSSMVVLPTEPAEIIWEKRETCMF

[6] = target: T1, Lanosterol 14-alpha demethylase; test: Inhibition of Candida albicans SC5314 CYP51 assessed as change in total sterol composition at 8 ug/ml by GC-MS method (reference value: 7.1 %); parameters: scale not given: the % may be the effect or the level left; details: at 8 µg/mL
[7] = target: T1, Lanosterol 14-alpha demethylase; test: Inhibition of Candida albicans SC5314 CYP51 assessed as ergosterol composition of total sterols at 8 ug/ml by GC-MS method (reference value: 89.4 %); parameters: scale not given: the % may be the effect or the level left; details: at 8 µg/mL
[8] = target: T1, Lanosterol 14-alpha demethylase; test: Inhibition of Candida albicans SC5314 CYP51 assessed as lanosterol composition of total sterols at 8 ug/ml by GC-MS method (reference value: 3.5 %); parameters: scale not given: the % may be the effect or the level left; details: at 8 µg/mL
[9] = target: T1, Lanosterol 14-alpha demethylase; test: Inhibition of Candida albicans SC5314 CYP51 assessed as obtusifoliol composition of total sterols at 8 ug/ml by GC-MS method relative to control; parameters: scale not given: the % may be the effect or the level left; details: at 8 µg/mL

| SMILES | MIC (Candida albicans [1]) | MIC (Candida tropicalis) | MIC (Cryptococcus neoformans) | MIC (Candida albicans [2]) | MIC (Aspergillus fumigatus) | MIC (Candida albicans [3]) | MIC (Candida albicans [4]) | Activity [5] | Activity [6] | Activity [7] | Activity [8] | Activity [9] |
| --- | --- | --- | --- | --- | --- | --- | --- | --- | --- | --- | --- | --- |
| COC(=O)[C@H](Cn1ccnc1)NC(=O)c1ccc(-c2ccccc2)cc1 | 2 µg/mL (≈ 5.72 µM) | 0.25 µg/mL (≈ 0.716 µM) | > 16 µg/mL | 2 µg/mL (≈ 5.72 µM) | > 16 µg/mL | – | – | – | – | – | – | – |
| CC(C)OC(=O)[C@H](Cn1ccnc1)NC(=O)c1ccc(-c2ccc(C(F)(F)F)cc2)cc1 | > 16 µg/mL | 2 µg/mL (≈ 4.49 µM) | > 16 µg/mL | > 16 µg/mL | > 16 µg/mL | – | – | – | – | – | – | – |
| CC(C)OC(=O)[C@H](Cn1ccnc1)NC(=O)c1ccc(-c2cccc(F)c2)cc1 | 0.25 µg/mL (≈ 0.632 µM) | 0.0625 µg/mL (≈ 0.158 µM) | 16 µg/mL (≈ 40.5 µM) | 0.0625 µg/mL (≈ 0.158 µM) | > 16 µg/mL | – | – | – | – | – | – | – |
| CC(C)COC(=O)[C@H](Cn1cncn1)NC(=O)c1ccc(-c2ccccc2)cc1 | 8 µg/mL (≈ 20.4 µM) | 4 µg/mL (≈ 10.2 µM) | 16 µg/mL (≈ 40.8 µM) | 1 µg/mL (≈ 2.55 µM) | > 16 µg/mL | – | – | – | – | – | – | – |
| COC(=O)[C@H](Cn1ccnc1)NC(=O)c1ccc(-c2ccccc2F)cc1 | 16 µg/mL (≈ 43.6 µM) | 4 µg/mL (≈ 10.9 µM) | 2 µg/mL (≈ 5.44 µM) | 16 µg/mL (≈ 43.6 µM) | > 16 µg/mL | – | – | – | – | – | – | – |
| CC(C)OC(=O)[C@H](Cn1ccnc1)NC(=O)c1ccc(-c2ccc(Cl)cc2)cc1 | 1 µg/mL (≈ 2.43 µM) | 0.25 µg/mL (≈ 0.607 µM) | 16 µg/mL (≈ 38.8 µM) | 0.25 µg/mL (≈ 0.607 µM) | > 16 µg/mL | – | – | – | – | – | – | – |
| CC(C)COC(=O)[C@H](Cn1ccnc1)NC(=O)c1ccc(-c2ccccc2Cl)cc1 | 2 µg/mL (≈ 4.7 µM) | 0.5 µg/mL (≈ 1.17 µM) | 16 µg/mL (≈ 37.6 µM) | 0.5 µg/mL (≈ 1.17 µM) | > 16 µg/mL | – | – | – | – | – | – | – |
| CC(C)OC(=O)[C@H](Cn1ccnc1)NC(=O)c1ccc(-c2ccccc2Cl)cc1 | 1 µg/mL (≈ 2.43 µM) | 0.5 µg/mL (≈ 1.21 µM) | 16 µg/mL (≈ 38.8 µM) | 0.25 µg/mL (≈ 0.607 µM) | > 16 µg/mL | – | – | – | – | – | – | – |
| CCCOC(=O)[C@H](Cn1ccnc1)NC(=O)c1ccc(-c2ccccc2F)cc1 | 0.25 µg/mL (≈ 0.632 µM) | 0.0625 µg/mL (≈ 0.158 µM) | 0.5 µg/mL (≈ 1.26 µM) | 0.125 µg/mL (≈ 0.316 µM) | > 16 µg/mL | – | – | – | – | – | – | – |
| CC(C)COC(=O)[C@H](Cn1ccnc1)NC(=O)c1ccc(-c2ccccc2)cc1 | 0.25 µg/mL (≈ 0.639 µM) | 0.0312 µg/mL (≈ 0.0798 µM) | 1 µg/mL (≈ 2.55 µM) | 0.0312 µg/mL (≈ 0.0798 µM) | > 16 µg/mL | – | – | – | – | – | – | – |
| CC(C)OC(=O)[C@H](Cn1ccnc1)NC(=O)c1ccc(-c2cccc(C#N)c2)cc1 | > 16 µg/mL | 8 µg/mL (≈ 19.9 µM) | > 16 µg/mL | > 16 µg/mL | > 16 µg/mL | – | – | – | – | – | – | – |
| Cc1ccccc1-c1ccc(C(=O)N[C@@H](Cn2ccnc2)C(=O)OC(C)C)cc1 | 2 µg/mL (≈ 5.11 µM) | 2 µg/mL (≈ 5.11 µM) | 16 µg/mL (≈ 40.9 µM) | 0.5 µg/mL (≈ 1.28 µM) | > 16 µg/mL | – | – | – | – | – | – | – |
| CC(C)OC(=O)[C@H](Cn1ccnc1)NC(=O)c1ccc(-c2ccc(F)c(F)c2)cc1 | > 16 µg/mL | 8 µg/mL (≈ 19.4 µM) | > 16 µg/mL | > 16 µg/mL | > 16 µg/mL | – | – | – | – | – | – | – |
| CCOC(=O)[C@H](Cn1ccnc1)NC(=O)c1ccc(-c2ccccc2F)cc1 | 1 µg/mL (≈ 2.62 µM) | 0.125 µg/mL (≈ 0.328 µM) | 1 µg/mL (≈ 2.62 µM) | 0.25 µg/mL (≈ 0.655 µM) | > 16 µg/mL | – | – | – | – | – | – | – |
| CC(C)NC(=O)[C@H](Cn1ccnc1)NC(=O)c1ccc(-c2ccccc2)cc1 | > 16 µg/mL | > 16 µg/mL | > 16 µg/mL | > 16 µg/mL | > 16 µg/mL | – | – | – | – | – | – | – |
| CC(C)CNC(=O)[C@H](Cn1ccnc1)NC(=O)c1ccc(-c2ccccc2)cc1 | > 16 µg/mL | > 16 µg/mL | > 16 µg/mL | > 16 µg/mL | > 16 µg/mL | – | – | – | – | – | – | – |
| CC(C)OC(=O)[C@H](Cn1ccnc1)NC(=O)c1ccc(-c2ccccc2F)cc1 | 0.25 µg/mL (≈ 0.632 µM) | 0.0625 µg/mL (≈ 0.158 µM) | 1 µg/mL (≈ 2.53 µM) | 0.0625 µg/mL (≈ 0.158 µM) | > 16 µg/mL | 4 µg/mL (≈ 10.1 µM) | 8 µg/mL (≈ 20.2 µM) | – | – | – | – | – |
| Cc1ccccc1-c1ccc(C(=O)N[C@@H](Cn2ccnc2)C(=O)OCC(C)C)cc1 | > 16 µg/mL | 4 µg/mL (≈ 9.86 µM) | > 16 µg/mL | > 16 µg/mL | > 16 µg/mL | – | – | – | – | – | – | – |
| CC(C)OC(=O)[C@H](Cn1ccnc1)NC(=O)c1ccc(-c2ccc(F)cc2F)cc1 | 2 µg/mL (≈ 4.84 µM) | 0.5 µg/mL (≈ 1.21 µM) | 8 µg/mL (≈ 19.4 µM) | 1 µg/mL (≈ 2.42 µM) | > 16 µg/mL | – | – | – | – | – | – | – |
| CC(C)OC(=O)[C@H](Cn1ccnc1)NC(=O)c1ccc(-c2cc(F)ccc2F)cc1 | 1 µg/mL (≈ 2.42 µM) | 0.0625 µg/mL (≈ 0.151 µM) | 16 µg/mL (≈ 38.7 µM) | 0.25 µg/mL (≈ 0.605 µM) | > 16 µg/mL | – | – | – | – | – | – | – |
| Cc1ccc(-c2ccc(C(=O)N[C@@H](Cn3ccnc3)C(=O)OC(C)C)cc2)cc1 | 0.5 µg/mL (≈ 1.28 µM) | 0.0625 µg/mL (≈ 0.16 µM) | 4 µg/mL (≈ 10.2 µM) | 0.0625 µg/mL (≈ 0.16 µM) | > 16 µg/mL | – | – | – | – | – | – | – |
| CC(C)OC(=O)[C@H](Cn1cncn1)NC(=O)c1ccc(-c2ccccc2)cc1 | 4 µg/mL (≈ 10.6 µM) | 2 µg/mL (≈ 5.28 µM) | 16 µg/mL (≈ 42.3 µM) | 0.25 µg/mL (≈ 0.661 µM) | > 16 µg/mL | – | – | – | – | – | – | – |
| CC(C)OC(=O)[C@H](Cn1ccnc1)NC(=O)c1ccc(-c2ccc(OC(F)(F)F)cc2)cc1 | 0.125 µg/mL (≈ 0.271 µM) | 0.5 µg/mL (≈ 1.08 µM) | 16 µg/mL (≈ 34.7 µM) | 0.125 µg/mL (≈ 0.271 µM) | > 16 µg/mL | – | – | – | – | – | – | – |
| CC(C)OC(=O)[C@H](Cn1ccnc1)NC(=O)c1ccc(-c2ccccc2)cc1 | 0.25 µg/mL (≈ 0.662 µM) | 0.0625 µg/mL (≈ 0.166 µM) | 2 µg/mL (≈ 5.3 µM) | 0.0312 µg/mL (≈ 0.0828 µM) | > 16 µg/mL | – | – | – | – | – | – | – |
| CC(C)OC(=O)[C@H](Cn1ccnc1)NC(=O)c1ccc(-c2ccc(F)cc2)cc1 | 8 µg/mL (≈ 20.2 µM) | 0.5 µg/mL (≈ 1.26 µM) | > 16 µg/mL | 1 µg/mL (≈ 2.53 µM) | > 16 µg/mL | – | – | – | – | – | – | – |
| CC(C)COC(=O)[C@H](Cn1ccnc1)NC(=O)c1ccc(-c2ccccc2F)cc1 | 0.125 µg/mL (≈ 0.305 µM) | 0.0312 µg/mL (≈ 0.0763 µM) | 0.5 µg/mL (≈ 1.22 µM) | 0.0312 µg/mL (≈ 0.0763 µM) | > 16 µg/mL | 4 µg/mL (≈ 9.77 µM) | 2 µg/mL (≈ 4.88 µM) | 65.1% | 6.2% | 2.5% | 19.6% | 6.6% |
| OC(Cn1cncn1)(Cn1cncn1)c1ccc(F)cc1F [FLUCONAZOLE] | 1 µg/mL (≈ 3.27 µM) | 1 µg/mL (≈ 3.27 µM) | 4 µg/mL (≈ 13.1 µM) | 0.5 µg/mL (≈ 1.63 µM) | > 16 µg/mL | > 64 µg/mL | > 64 µg/mL | 68.1% | 4.9% | 2% | 18.2% | 6.8% |
| CCC(C)n1ncn(-c2ccc(N3CCN(c4ccc(OCC5COC(Cn6cncn6)(c6ccc(Cl)cc6Cl)O5)cc4)CC3)cc2)c1=O (stereo unspecified) [ITRACONAZOLE] | 0.25 µg/mL (≈ 0.354 µM) | 0.5 µg/mL (≈ 0.709 µM) | 1 µg/mL (≈ 1.42 µM) | 0.0625 µg/mL (≈ 0.0886 µM) | 4 µg/mL (≈ 5.67 µM) | – | – | – | – | – | – | – |
